The results in this text go back to patent US9150575B2, “Piperidinylpyrazolopyridine derivative” (Daiichi Sankyo Company, Limited, priority 2012, dated 2015).

Structures are written as SMILES.

In the experiment the target is T1, LCAT (Homo sapiens, UniProt P04180).
T1 construct: The obtained fraction was dialyzed against phosphate-buffered saline (pH 7.4) and used as an enzyme source and an acceptor for LCAT; from tissue; host or cells: HDL3 fraction (1.125<specific gravity<1.210 g/mL) of plasma from a healthy person
T1 sequence (P04180 25-440): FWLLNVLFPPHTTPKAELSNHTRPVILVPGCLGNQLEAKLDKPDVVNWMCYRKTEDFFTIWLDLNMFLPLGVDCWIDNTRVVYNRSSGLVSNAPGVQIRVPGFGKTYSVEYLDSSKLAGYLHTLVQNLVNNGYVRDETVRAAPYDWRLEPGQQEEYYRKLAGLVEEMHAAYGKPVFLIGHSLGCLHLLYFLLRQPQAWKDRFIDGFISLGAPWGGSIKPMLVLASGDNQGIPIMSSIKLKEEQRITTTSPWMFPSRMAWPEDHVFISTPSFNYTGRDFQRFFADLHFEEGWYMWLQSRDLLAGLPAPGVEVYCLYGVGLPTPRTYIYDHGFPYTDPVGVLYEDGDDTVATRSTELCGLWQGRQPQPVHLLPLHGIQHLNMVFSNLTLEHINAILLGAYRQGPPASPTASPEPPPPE
As to the kind of experiment: LCAT Activity Measurement (In Vitro). Format: biochemical. The conditions noted are these: EC50 of LCAT activation; HDL3 fraction from plasma of a healthy person as enzyme source and acceptor; [14C]cholesterol; 37° C., approximately 16 hours. As to the method:
A fraction composed of HDL3 (1.125<specific gravity<1.210 g/mL) was obtained from the plasma of a healthy person by density gradient centrifugation. The obtained fraction was dialyzed against phosphate-buffered saline (pH 7.4) and used as an enzyme source and an acceptor for LCAT. Each test drug was prepared by dissolution in dimethyl sulfoxide. [14C]Cholesterol containing DTNB (Ellman's reagent, final concentration: 0.5 mM), mercaptoethanol (final concentration: 12.5 mM), and 0.6% bovine serum albumin was added to phosphate-buffered saline (pH 7.4) containing 1 mg/mL HDL3, and the test drug was further added thereto at varying concentrations to adjust the whole amount to 80 μL. This mixture was incubated at 37° C. for approximately 16 hours. Then, a mixed solution of hexane and isopropanol (mixing ratio=3:2) was added thereto to stop the reaction. After stirring, the hexane layer was collected, and this layer was evaporated to dryness. A chloroform solution (concentration: 10 mg/mL) was added thereto, and the mixture was spotted onto a thin-layer silica gel plate and developed using a mixed solution of hexane, diethyl ether, and ethyl acetate (mixing ratio=85:15:2). The radioactivity of a portion corresponding to cholesterol oleate was measured using an imaging analyzer BAS-2500 (manufactured by Fujifilm Corp.). A sample non-supplemented with the test drug was similarly treated and assayed. The EC50 value of LCAT activation was calculated according to the expression given below relative to LCAT activity in the sample non-supplemented with the test drug.
wherein X represents the logarithm of the concentration of the test drug;
Y represents the responsiveness (LCAT activity) of the test drug;
Top represents the maximum value (maximum plateau);
Bottom represents the minimum value (minimum plateau); and
EC50 represents the 50% effective concentration.
As usually defined, the EC50 is the concentration giving half of the maximal effect. A high value points to a need for much substance. In the case of `N#Cc1ccc(N2CCC(c3n[nH]c4c3C(O)(C(F)(F)F)CC(=O)N4)CC2)cc1` (centres unmarked) [Example 35, 4-{4-[4-Hydroxy-6-oxo-4-(trifluoromethyl)-4,5,6,7-tetrahydro-1H-pyrazolo[3,4-b]pyridin-3-yl]piperidin-1-yl}benzonitrile], the response was half-maximal at 380 nM (EC50).

As to `O=C1CC(O)(C(F)(F)F)c2c(C3CCN(c4ccc(F)cn4)CC3)n[nH]c2N1` (centres unmarked) [Example 15, 3-[1-(5-Fluoropyridin-2-yl)piperidin-4-yl]-4-hydroxy-4-(trifluoromethyl)-1,4,5,7-tetrahydro-6H-pyrazolo[3,4-b]pyridin-6-one], the EC50 amounted to 250 nM. The figure for `CC(C)c1nc(N2CCC(c3n[nH]c4c3C(O)(C(F)(F)F)CC(=O)N4)CC2)cc(C(F)(F)F)n1` (centres unmarked) [Example 88, 4-Hydroxy-3-{1-[2-(propan-2-yl)-6-(trifluoromethyl)pyrimidin-4-yl]piperidin-4-yl}-4-(trifluoromethyl)-1,4,5,7-tetrahydro-6H-pyrazolo[3,4-b]pyridin-6-one] is 88 nM; for `CN(C)C(=O)c1cc(N2CCC(c3n[nH]c4c3C(O)(C(F)(F)F)CC(=O)N4)CC2)ncc1C(F)(F)F` (centres unmarked) [Example 84, 2-{4-[4-Hydroxy-6-oxo-4-(trifluoromethyl)-4,5,6,7-tetrahydro-1H-pyrazolo[3,4-b]pyridin-3-yl]piperidin-1-yl}-N,N-dimethyl-5-(trifluoromethyl)pyridine-4-carboxamide] it is 270 nM; for `O=C1CC(O)(C(F)(F)F)c2c(C3CCN(c4ccccc4)CC3)n[nH]c2N1` (centres unmarked) [Example 1, 4-Hydroxy-3-(1-phenylpiperidin-4-yl)-4-(trifluoromethyl)-1,4,5,7-tetrahydro-6H-pyrazolo[3,4-b]pyridin-6-one] it is 1510 nM. The figure for `O=C1CC(O)(C(F)(F)F)c2c(C3CCN(c4cncc(C(F)(F)F)c4)CC3)n[nH]c2N1` (centres unmarked) [Example 53, 4-Hydroxy-4-(trifluoromethyl)-3-{1-[5-(trifluoromethyl)pyridin-3-yl]piperidin-4-yl}-1,4,5,7-tetrahydro-6H-pyrazolo[3,4-b]pyridin-6-one] is 50 nM.

For `N#Cc1cc(C(F)(F)F)cnc1N1CCC(c2n[nH]c3c2C(O)(C(F)(F)F)CC(=O)N3)CC1` (centres unmarked) [Example 101, 2-{4-[4-Hydroxy-6-oxo-4-(trifluoromethyl)-4,5,6,7-tetrahydro-1H-pyrazolo[3,4-b]pyridin-3-yl]piperidin-1-yl}-5-(trifluoromethyl)pyridine-3-carbonitrile], a half-maximal effect (EC50) was put at 170 nM. The figure for `O=C1CC(O)(C(F)(F)F)c2c(C3CCN(c4ccccn4)CC3)n[nH]c2N1` (centres unmarked) [Example 2, 4-Hydroxy-3-[1-(pyridin-2-yl)piperidin-4-yl]-4-(trifluoromethyl)-1,4,5,7-tetrahydro-6H-pyrazolo[3,4-b]pyridin-6-one] is 520 nM; for `O=C1CC(O)(C(F)(F)F)c2c(C3CCN(c4ncccc4Cl)CC3)n[nH]c2N1` (centres unmarked) [Example 11, 3-[1-(3-Chloropyridin-2-yl)piperidin-4-yl]-4-hydroxy-4-(trifluoromethyl)-1,4,5,7-tetrahydro-6H-pyrazolo[3,4-b]pyridin-6-one] it is 3090 nM. The figure for `CN(C)c1ncc(N2CCC(c3n[nH]c4c3C(O)(C(F)(F)F)CC(=O)N4)CC2)cn1` (centres unmarked) [Example 67, 3-{1-[2-(Dimethylamino)pyrimidin-5-yl]piperidin-4-yl}-4-hydroxy-4-(trifluoromethyl)-1,4,5,7-tetrahydro-6H-pyrazolo[3,4-b]pyridin-6-one] is 330 nM; for `O=C1CC(O)(C(F)(F)F)c2c(C3CCN(c4ccc(Br)cn4)CC3)n[nH]c2N1` (centres unmarked) [Example 74, 3-[1-(5-Bromopyridin-2-yl)piperidin-4-yl]-4-hydroxy-4-(trifluoromethyl)-1,4,5,7-tetrahydro-6H-pyrazolo[3,4-b]pyridin-6-one] it is 140 nM. In turn, `N#Cc1ncc(N2CCC(c3n[nH]c4c3C(O)(C(F)(F)F)CC(=O)N4)CC2)cc1F` (centres unmarked) [Example 38, 3-Fluoro-5-{4-[4-hydroxy-6-oxo-4-(trifluoromethyl)-4,5,6,7-tetrahydro-1H-pyrazolo[3,4-b]pyridin-3-yl]piperidin-1-yl}pyridine-2-carbonitrile] had an EC50 of 43 nM.

Molecule `O=C1CC(O)(C(F)(F)F)c2c(C3CCN(c4ncc(C(F)(F)F)cc4F)CC3)n[nH]c2N1` (centres unmarked) [Example 96, 3-{1-[3-Fluoro-5-(trifluoromethyl)pyridin-2-yl]piperidin-4-yl}-4-hydroxy-4-(trifluoromethyl)-1,4,5,7-tetrahydro-6H-pyrazolo[3,4-b]pyridin-6-one] came in with an EC50 of 220 nM. The molecule `O=C1CC(O)(C(F)(F)F)c2c(C3CCN(c4ccc(OC(F)(F)F)cc4)CC3)n[nH]c2N1` (centres unmarked) [Example 58, 4-Hydroxy-3-{1-[4-(trifluoromethoxy)phenyl]piperidin-4-yl}-4-(trifluoromethyl)-1,4,5,7-tetrahydro-6H-pyrazolo[3,4-b]pyridin-6-one] showed an EC50 of 20 nM. The figure for `Cc1cccc(N2CCC(c3n[nH]c4c3C(O)(C(F)(F)F)CC(=O)N4)CC2)n1` (centres unmarked) [Example 3, 4-Hydroxy-3-[1-(6-methylpyridin-2-yl)piperidin-4-yl]-4-(trifluoromethyl)-1,4,5,7-tetrahydro-6H-pyrazolo[3,4-b]pyridin-6-one] is 630 nM; for `N#Cc1cncc(N2CCC(c3n[nH]c4c3C(O)(C(F)(F)F)CC(=O)N4)CC2)c1` (centres unmarked) [Example 37, 5-{4-[4-Hydroxy-6-oxo-4-(trifluoromethyl)-4,5,6,7-tetrahydro-1H-pyrazolo[3,4-b]pyridin-3-yl]piperidin-1-yl}pyridine-3-carbonitrile] it is 71 nM; for `O=C1CC(O)(C(F)(F)F)c2c(C3CCN(c4ccc(-c5ccccc5)nn4)CC3)n[nH]c2N1` (centres unmarked) [Example 105, 4-Hydroxy-3-[1-(6-phenylpyridazin-3-yl)piperidin-4-yl]-4-(trifluoromethyl)-1,4,5,7-tetrahydro-6H-pyrazolo[3,4-b]pyridin-6-one] it is 27 nM. `O=C1CC(O)(C(F)(F)F)c2c(C3CCN(c4ccc(OC(F)F)cc4)CC3)n[nH]c2N1` (centres unmarked) [Example 55, 3-{1-[4-(Difluoromethoxy)phenyl]piperidin-4-yl}-4-hydroxy-4-(trifluoromethyl)-1,4,5,7-tetrahydro-6H-pyrazolo[3,4-b]pyridin-6-one] came in with a half-maximal effective concentration (EC50) of 79 nM. Next, `CN(C)c1cc(N2CCC(c3n[nH]c4c3C(O)(C(F)(F)F)CC(=O)N4)CC2)nc(C(F)(F)F)n1` (centres unmarked) [Example 86, 3-{1-[6-(Dimethylamino)-2-(trifluoromethyl)pyrimidin-4-yl]piperidin-4-yl}-4-hydroxy-4-(trifluoromethyl)-1,4,5,7-tetrahydro-6H-pyrazolo[3,4-b]pyridin-6-one]: 140 nM. The figure for `O=C1CC(O)(C(F)(F)F)c2c(C3CCN(c4cc(C(F)(F)F)ccn4)CC3)n[nH]c2N1` (centres unmarked) [Example 13, 4-Hydroxy-4-(trifluoromethyl)-3-{1-[4-(trifluoromethyl)pyridin-2-yl]piperidin-4-yl}-1,4,5,7-tetrahydro-6H-pyrazolo[3,4-b]pyridin-6-one] is 56 nM; for `N#Cc1cnc(N2CCC(c3n[nH]c4c3C(O)(C(F)(F)F)CC(=O)N4)CC2)cc1C(F)(F)F` (centres unmarked) [Example 95, 6-{4-[4-Hydroxy-6-oxo-4-(trifluoromethyl)-4,5,6,7-tetrahydro-1H-pyrazolo[3,4-b]pyridin-3-yl]piperidin-1-yl}-4-(trifluoromethyl)pyridine-3-carbonitrile] it is 37 nM. The figure for `O=C1CC(O)(C(F)(F)F)c2c(C3CCN(c4ccc(Cl)nn4)CC3)n[nH]c2N1` (centres unmarked) [Example 34, 3-[1-(6-Chloropyridazin-3-yl)piperidin-4-yl]-4-hydroxy-4-(trifluoromethyl)-1,4,5,7-tetrahydro-6H-pyrazolo[3,4-b]pyridin-6-one] is 150 nM; for `N#Cc1cc(N2CCC(c3n[nH]c4c3C(O)(C(F)(F)F)CC(=O)N4)CC2)ccc1OC(F)(F)F` (centres unmarked) [Example 62, 5-{4-[4-Hydroxy-6-oxo-4-(trifluoromethyl)-4,5,6,7-tetrahydro-1H-pyrazolo[3,4-b]pyridin-3-yl]piperidin-1-yl}-2-(trifluoromethoxy)benzonitrile] it is 7 nM.
